One data set relates to human Factor XI mRNA. In words: Dose-dependent inhibition and IC50 in HepG2 cells, microwalk gapmers, electroporation (Example 16). It counts as cell-based. The protocol:
These gapmers were tested at various doses in HepG2 cells. Cells were plated at a density of 20,000 cells per well and transfected using electroporation with 375 nM, 750 nM, 1,500 nM, 3,000 nM, 6,000 nM and 12,000 nM concentrations of antisense oligonucleotide, as specified in Table 54. After a treatment period of approximately 16 hours, RNA was isolated from the cells and Factor XI mRNA levels were measured by quantitative real-time PCR. Human Factor XI primer probe set RTS 2966 was used to measure mRNA levels. Factor XI mRNA levels were adjusted according to total RNA content, as measured by RIBOGREEN. Results are presented as percent inhibition of Factor XI, relative to untreated control cells.
ISIS 416850, ISIS 416858, ISIS 445522, and ISIS 445531 (see Table 52 above) were re-tested in vitro along with the microwalk gapmers under the same conditions described above.
The chimeric antisense oligonucleotides in Table 53 were designed as 3-8-3 MOE, 4-8-4 MOE, 2-10-2 MOE, 3-10-3 MOE, or 4-10-4 MOE gapmers. The 3-8-3 gapmer is 14 nucleotides in length, wherein the central gap segment is comprised of eight 2′-deoxynucleotides and is flanked on both sides (in the 5′ and 3′ directions) by wings comprising three nucleotides each. The 4-8-4 gapmer is 16 nucleotides in length, wherein the central gap segment is comprised of eight 2′-deoxynucleotides and is flanked on both sides (in the 5′ and 3′ directions) by wings comprising four nucleotides each. The 2-10-2 gapmer is 14 nucleotides in length, wherein the central gap segment is comprised of ten 2′-deoxynucleotides and is flanked on both sides (in the 5′ and 3′ directions) by wings comprising two nucleotides each. The 3-10-3 gapmer is 16 nucleotides in length, wherein the central gap segment is comprised of ten 2′-deoxynucleotides and is flanked on both sides (in the 5′ and 3′ directions) by wings comprising three nucleotides each. The 4-10-4 gapmer is 18 nucleotides in length, wherein the central gap segment is comprised of ten 2′-deoxynucleotides and is flanked on both sides (in the 5′ and 3′ directions) by wings comprising four nucleotides each. For each of the motifs (3-8-3, 4-8-4, 2-10-2, 3-10-3, and 4-10-4), each nucleotide in the 5′ wing segment and each nucleotide in the 3′ wing segment has a 2′-MOE modification. The internucleoside linkages throughout each gapmer are phosphorothioate (P═S) linkages. All cytidine residues throughout each gapmer are 5-methylcytidines. “Human Target start site” indicates the 5′-most nucleotide to which the gapmer is targeted in the human sequence. “Human Target stop site” indicates the 3′-most nucleotide to which the gapmer is targeted in the human sequence. Each gapmer listed in Table 53 is targeted to SEQ ID NO: 1 (GENBANK Accession No. NM_000128.3). Each gapmer is Table 53 is also fully cross-reactive with the rhesus monkey Factor XI gene sequence, designated herein as SEQ ID NO: 274 (exons 1-15 GENBANK Accession No. NW—001118167.1). ‘Rhesus monkey start site’ indicates the 5′-most nucleotide to which the gapmer is targeted in the rhesus monkey sequence. ‘Rhesus monkey stop site’ indicates the 3′-most nucleotide to which the gapmer is targeted to the rhesus monkey sequence.
The first two listed gapmers in Table 54 are the original gapmers (ISIS 416850 and ISIS 416858) from which the remaining gapmers were designed via microwalk and are designated by an asterisk.

The next data set has as its system Factor XI protein. In words: Cynomolgus monkeys: plasma Factor XI protein ELISA (Example 30). It counts as in vivo. The conditions noted are these: 25 mg/kg s.c., plasma ELISA. Here is the method:
(§1) Groups, each consisting of two male and two female monkeys, were injected subcutaneously with 25 mg/kg of ISIS 416850, ISIS 449709, ISIS 445522, ISIS 449710, ISIS 449707, ISIS 449711, ISIS 449708, 416858 and ISIS 445531. Antisense oligonucleotide was administered to the monkeys at 25 mg/kg three times per week for week 1 and 25 mg/kg twice per week for weeks 2 to 8. A control group, consisting of two male and two female monkeys was injected subcutaneously with PBS according to the same dosing regimen. Body weights were taken 14 days and 7 days before the start of treatment and were then measured weekly throughout the treatment period. Blood samples were collected 14 days and 5 days before the start of treatment and subsequently several times during the dosing regimen for measurement of various hematologic factors. On day 55, the monkeys were euthanized by exsanguination while under deep anesthesia, and organs harvested for further analysis.
Plasma samples from all monkey groups taken on different days were analyzed by a sandwich-style ELISA assay (Affinity Biologicals Inc.) using an affinity-purified polyclonal anti-Factor XI antibody as the capture antibody and a peroxidase-conjugated polyclonal anti-Factor XI antibody as the detecting antibody. Monkey plasma was diluted 1:50 for the assay. Peroxidase activity was expressed by incubation with the substrate o-phenylenediamine. The color produced was quantified using a microplate reader at 490 nm and was considered to be proportional to the concentration of Factor XI in the samples.
The results are presented in Table 148, expressed as percentage reduction relative to that of the PBS control.

Another data set relates to Factor XI mRNA. The experiment in a line: Cynomolgus monkeys, 25 mg/kg: liver Factor XI RNA analysis (Example 30). It counts as in vivo. As to conditions: 25 mg/kg s.c.; day 55; liver. Here is the method: as §1
On day 55, RNA was extracted from liver tissue for real-time PCR analysis of Factor XI using primer probe set LTS00301. Results are presented as percent inhibition of Factor XI, relative to PBS control.

Data set [1] can be described thus: Tolerability in CD1 mice: body and organ weights (Example 21). It counts as in vivo. The conditions noted are these: 50 mg/kg s.c. twice per week for 6 weeks, percentage of the body weight.
Protocol: Body weight was measured at the onset of the study and subsequently twice per week. The body weights of the mice are presented in Table 87 and are expressed increase in grams over the PBS control weight taken before the start of treatment. Liver, spleen, and kidney weights were measured at the end of the study, and are also presented in Table 87 as percentage of the body weight.
Data set [2] in a line: Tolerability in Sprague-Dawley rats: hematology assays (Example 23). It counts as in vivo. Details: RBC / WBC / Neutrophil / Lymphocyte / Platelets: unit not given here. As to conditions: blood.

In the oligonucleotide strings, read from the 5' end, every base follows the letter of its sugar. An asterisk marks phosphorothioate; unmarked linkages are phosphodiester. Other units and linkages are bracketed, terminal groups are in braces. A string of capitals states the bases alone. e = 2'-O-(2-methoxyethyl) (MOE); [5mC] = 5-methylcytosine; d = 2'-deoxy (DNA)

Turning to “449707 (antisense e[5mC]*eA*e[5mC]*eA*dG*dT*dT*dT*d[5mC]*dT*dG*dG*e[5mC]*eA*eG*eG) [compound 449707]”, the “percent inhibition of Factor XI mRNA” value in the data set with human Factor XI mRNA (electroporation, 375 nM) worked out at 7%; with human Factor XI mRNA (electroporation, 750 nM) it was 35%; in the data set with human Factor XI mRNA (electroporation, 1,500 nM) it was 63%; with human Factor XI mRNA (electroporation, 3,000 nM), 73%; with human Factor XI mRNA (electroporation, 6,000 nM), 85%; in the data set on human Factor XI mRNA (electroporation, 12,000 nM), 91%. The “Inhibition of Factor XI protein relative to the PBS control” value is reported as 16% in the data set with Factor XI protein (Day 10); 19% with Factor XI protein (Day 17); 21% in the data set on Factor XI protein (Day 24); 29% in the data set with Factor XI protein (Day 31); 28% in the data set with Factor XI protein (Day 38); 35% in the data set with Factor XI protein (Day 45). Moreover, the “Inhibition of Factor XI protein relative to the PBS control” value with Factor XI protein (Day 52) turned out to be 29%; in the data set with Factor XI protein (Day 55), 32%; in the data set with Factor XI protein (Day −5), 0%; in the data set on Factor XI protein (Day −14) it was 0%. For the same substance, the “% inhibition of Factor XI mRNA in liver relative to the PBS control” value with Factor XI mRNA is given as 47%.
For the substance “449708 (antisense eA*e[5mC]*eA*dG*dT*dT*dT*d[5mC]*dT*dG*dG*e[5mC]*eA*eG) [compound 449708]”, the “percent inhibition of Factor XI mRNA” value in the data set with human Factor XI mRNA (electroporation, 375 nM) was determined as 0%; in the data set with human Factor XI mRNA (electroporation, 750 nM) it was 0%; in the data set with human Factor XI mRNA (electroporation, 1,500 nM), 22%; with human Factor XI mRNA (electroporation, 3,000 nM), 33%; with human Factor XI mRNA (electroporation, 6,000 nM) it was 61%; in the data set on human Factor XI mRNA (electroporation, 12,000 nM), 85%. Also, the “Inhibition of Factor XI protein relative to the PBS control” value in the data set on Factor XI protein (Day 10) stood at 7%; with Factor XI protein (Day 17), 15%; in the data set on Factor XI protein (Day 24), 3%; in the data set with Factor XI protein (Day 31), 14%; in the data set on Factor XI protein (Day 38), 9%; in the data set with Factor XI protein (Day 45) it was 2%. The “Inhibition of Factor XI protein relative to the PBS control” value in the data set on Factor XI protein (Day 52) stood at 6%; in the data set with Factor XI protein (Day 55), 6%; in the data set on Factor XI protein (Day −5), 0%; with Factor XI protein (Day −14), 1%. Besides, the “% inhibition of Factor XI mRNA in liver relative to the PBS control” value with Factor XI mRNA was determined as 46%.
“449709 (antisense eG*e[5mC]*eA*e[5mC]*dA*dG*dT*dT*dT*d[5mC]*dT*dG*dG*d[5mC]*eA*eG*eG*e[5mC]) [compound 449709]”: the “percent inhibition of Factor XI mRNA” value in the data set on human Factor XI mRNA (electroporation, 375 nM) worked out at 52%; with human Factor XI mRNA (electroporation, 750 nM), 71%; in the data set with human Factor XI mRNA (electroporation, 1,500 nM), 80%; in the data set with human Factor XI mRNA (electroporation, 3,000 nM) it was 87%; in the data set on human Factor XI mRNA (electroporation, 6,000 nM) it was 92%; in the data set on human Factor XI mRNA (electroporation, 12,000 nM), 95%. Further, the “Inhibition of Factor XI protein relative to the PBS control” value with Factor XI protein (Day 10) is given as 27%; in the data set on Factor XI protein (Day 17), 35%; with Factor XI protein (Day 24), 44%; in the data set on Factor XI protein (Day 31), 45%; in the data set on Factor XI protein (Day 38), 46%; in the data set on Factor XI protein (Day 45), 48%. The “Inhibition of Factor XI protein relative to the PBS control” value in the data set on Factor XI protein (Day 52) is given as 47%; in the data set with Factor XI protein (Day 55), 50%; in the data set on Factor XI protein (Day −5), 0%; in the data set with Factor XI protein (Day −14) it was 1%. The “% inhibition of Factor XI mRNA in liver relative to the PBS control” value in the data set on Factor XI mRNA amounted to 69%.
In the case of “449710 (antisense e[5mC]*eA*e[5mC]*dA*dG*dT*dT*dT*d[5mC]*dT*dG*dG*d[5mC]*eA*eG*eG) [compound 449710]”, the “percent inhibition of Factor XI mRNA” value in the data set on human Factor XI mRNA (electroporation, 375 nM) was 2%; with human Factor XI mRNA (electroporation, 750 nM), 21%; with human Factor XI mRNA (electroporation, 1,500 nM), 52%; with human Factor XI mRNA (electroporation, 3,000 nM), 70%; in the data set on human Factor XI mRNA (electroporation, 6,000 nM), 82%; with human Factor XI mRNA (electroporation, 12,000 nM), 87%. For the same substance, the “Inhibition of Factor XI protein relative to the PBS control” value came to 10% in the data set with Factor XI protein (Day 10); 14% in the data set on Factor XI protein (Day 17); 17% in the data set on Factor XI protein (Day 24); 25% in the data set on Factor XI protein (Day 31); 20% in the data set with Factor XI protein (Day 38); 23% in the data set with Factor XI protein (Day 45). Besides, the “Inhibition of Factor XI protein relative to the PBS control” value with Factor XI protein (Day 52) is 4%; with Factor XI protein (Day 55), 24%; with Factor XI protein (Day −5), 0%; in the data set with Factor XI protein (Day −14), 1%. The “% inhibition of Factor XI mRNA in liver relative to the PBS control” value in the data set with Factor XI mRNA came to 52%.
Substance “ISIS 416856: gapmer of Table 8 (antisense eG*eG*e[5mC]*eA*eT*dT*dG*dG*dT*dG*d[5mC]*dA*d[5mC]*dA*dG*eT*eT*eT*e[5mC]*eT)” returned a Kidney weight in data set [1] of 1.4%. Also, in data set [2], the RBC was 7.7 and the WBC was determined as 19.
